Test results: ChEMBL document CHEMBL5291721, “A preclinical secondary pharmacology resource illuminates target-adverse drug reaction associations of marketed drugs” (Nat Commun, 2023)
Where a SMILES comes first, the peptide text is derived from it. [ ]: non-standard residue; d: D form. pGlu = O=C1CC[C@@H](C(=O)O)N1; Thz = O=C(O)[C@@H]1CSCN1

Experiments:
[1] = target: Muscarinic acetylcholine receptor M3 (Homo sapiens, UniProt P20309)
[2] = target: T1, 5-hydroxytryptamine receptor 2A (Homo sapiens, UniProt P28223); format: functional, cell-based
[3] = target: T1, 5-hydroxytryptamine receptor 2A; format: functional, cell-based; remark: listed apart in the source
[4] = target: T2, Alpha-2B adrenergic receptor (Homo sapiens, UniProt P18089)
T2 sequence (P18089 whole entry): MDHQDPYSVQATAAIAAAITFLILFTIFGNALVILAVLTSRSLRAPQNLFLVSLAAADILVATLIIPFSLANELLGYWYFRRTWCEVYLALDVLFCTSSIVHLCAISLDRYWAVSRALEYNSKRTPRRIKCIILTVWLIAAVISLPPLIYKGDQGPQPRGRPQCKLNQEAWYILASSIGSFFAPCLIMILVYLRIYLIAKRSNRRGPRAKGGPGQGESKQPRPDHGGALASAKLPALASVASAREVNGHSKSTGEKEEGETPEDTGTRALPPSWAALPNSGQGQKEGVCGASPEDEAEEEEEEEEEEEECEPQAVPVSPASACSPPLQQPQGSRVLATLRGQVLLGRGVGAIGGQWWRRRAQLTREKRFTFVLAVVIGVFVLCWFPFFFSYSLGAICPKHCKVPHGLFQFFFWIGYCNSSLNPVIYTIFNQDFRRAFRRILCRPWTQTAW

Mu-type opioid receptor = Mu-type opioid receptor (Homo sapiens, UniProt P35372); test: biochemical; format: functional
[5] = target: T3, Alpha-1A adrenergic receptor (Homo sapiens, UniProt P35348); format: functional, cell-based
T3 sequence (P35348 whole entry): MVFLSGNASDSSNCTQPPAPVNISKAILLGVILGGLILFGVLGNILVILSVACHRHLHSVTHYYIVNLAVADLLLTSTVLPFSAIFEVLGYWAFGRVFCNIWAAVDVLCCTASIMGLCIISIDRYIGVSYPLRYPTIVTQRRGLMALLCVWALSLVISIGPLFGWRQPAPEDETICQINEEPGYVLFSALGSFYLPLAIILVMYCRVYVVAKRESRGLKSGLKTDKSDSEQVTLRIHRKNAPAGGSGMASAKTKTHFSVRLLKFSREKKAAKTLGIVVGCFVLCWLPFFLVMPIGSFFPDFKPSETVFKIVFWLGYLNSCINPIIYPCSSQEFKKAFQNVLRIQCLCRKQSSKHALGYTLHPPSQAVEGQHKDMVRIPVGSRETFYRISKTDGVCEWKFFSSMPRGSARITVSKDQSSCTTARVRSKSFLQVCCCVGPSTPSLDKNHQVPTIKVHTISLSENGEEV

[6] = target: T4, Muscarinic acetylcholine receptor M1 (Homo sapiens, UniProt P11229); format: functional
T4 sequence (P11229 whole entry): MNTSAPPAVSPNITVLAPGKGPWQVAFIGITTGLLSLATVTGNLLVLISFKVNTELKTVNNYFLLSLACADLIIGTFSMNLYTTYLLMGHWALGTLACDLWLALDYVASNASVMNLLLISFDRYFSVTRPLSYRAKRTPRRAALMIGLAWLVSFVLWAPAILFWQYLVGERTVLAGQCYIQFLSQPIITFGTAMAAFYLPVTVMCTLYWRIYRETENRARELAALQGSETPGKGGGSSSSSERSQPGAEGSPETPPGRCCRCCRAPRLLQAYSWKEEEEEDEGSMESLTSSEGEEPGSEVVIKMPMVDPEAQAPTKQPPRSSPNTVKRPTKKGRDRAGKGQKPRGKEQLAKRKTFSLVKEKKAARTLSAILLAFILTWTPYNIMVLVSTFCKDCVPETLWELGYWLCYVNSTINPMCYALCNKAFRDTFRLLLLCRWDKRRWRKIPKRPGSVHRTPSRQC

Cannabinoid receptor 1 [7] = target: T5, Cannabinoid receptor 1 (Homo sapiens, UniProt P21554); format: functional, cell-based
Estrogen receptor = target: T6, Estrogen receptor (Homo sapiens, UniProt P03372)
T6 sequence (P03372 whole entry): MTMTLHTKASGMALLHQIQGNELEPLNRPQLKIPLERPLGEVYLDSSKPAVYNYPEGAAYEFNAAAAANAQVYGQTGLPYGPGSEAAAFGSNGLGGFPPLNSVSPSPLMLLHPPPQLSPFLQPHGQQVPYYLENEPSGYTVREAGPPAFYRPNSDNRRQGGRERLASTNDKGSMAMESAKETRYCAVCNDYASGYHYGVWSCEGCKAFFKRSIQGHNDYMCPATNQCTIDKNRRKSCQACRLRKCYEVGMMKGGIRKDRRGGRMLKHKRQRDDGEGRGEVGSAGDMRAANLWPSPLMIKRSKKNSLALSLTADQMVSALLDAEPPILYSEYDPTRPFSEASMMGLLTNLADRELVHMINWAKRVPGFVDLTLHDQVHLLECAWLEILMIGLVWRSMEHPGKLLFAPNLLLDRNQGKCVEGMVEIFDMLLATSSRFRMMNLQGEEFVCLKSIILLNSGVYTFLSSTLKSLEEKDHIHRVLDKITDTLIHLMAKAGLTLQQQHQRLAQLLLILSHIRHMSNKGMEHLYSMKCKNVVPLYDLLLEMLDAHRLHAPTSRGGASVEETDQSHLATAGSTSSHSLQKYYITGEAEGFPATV

[8] = target: T3, Alpha-1A adrenergic receptor
Cannabinoid receptor 1 [9] = target: T5, Cannabinoid receptor 1
[10] = target: T7, 5-hydroxytryptamine receptor 1A (Homo sapiens, UniProt P08908); format: functional, cell-based
T7 sequence (P08908 whole entry): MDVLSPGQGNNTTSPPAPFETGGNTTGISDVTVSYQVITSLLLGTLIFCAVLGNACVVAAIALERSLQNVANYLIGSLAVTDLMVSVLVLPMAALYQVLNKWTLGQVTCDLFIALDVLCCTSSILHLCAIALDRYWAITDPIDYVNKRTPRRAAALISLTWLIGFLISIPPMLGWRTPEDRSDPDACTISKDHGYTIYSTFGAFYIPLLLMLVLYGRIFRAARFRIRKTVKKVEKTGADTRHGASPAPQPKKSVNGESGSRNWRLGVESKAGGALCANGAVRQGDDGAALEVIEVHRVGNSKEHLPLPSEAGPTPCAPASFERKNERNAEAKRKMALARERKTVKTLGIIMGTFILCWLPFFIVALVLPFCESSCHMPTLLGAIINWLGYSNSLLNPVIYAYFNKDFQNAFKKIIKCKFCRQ

Melanocortin receptor 4 = Melanocortin receptor 4 (Homo sapiens, UniProt P32245)
Note: assay procedure not described here.

T1 sequence (P28223 whole entry): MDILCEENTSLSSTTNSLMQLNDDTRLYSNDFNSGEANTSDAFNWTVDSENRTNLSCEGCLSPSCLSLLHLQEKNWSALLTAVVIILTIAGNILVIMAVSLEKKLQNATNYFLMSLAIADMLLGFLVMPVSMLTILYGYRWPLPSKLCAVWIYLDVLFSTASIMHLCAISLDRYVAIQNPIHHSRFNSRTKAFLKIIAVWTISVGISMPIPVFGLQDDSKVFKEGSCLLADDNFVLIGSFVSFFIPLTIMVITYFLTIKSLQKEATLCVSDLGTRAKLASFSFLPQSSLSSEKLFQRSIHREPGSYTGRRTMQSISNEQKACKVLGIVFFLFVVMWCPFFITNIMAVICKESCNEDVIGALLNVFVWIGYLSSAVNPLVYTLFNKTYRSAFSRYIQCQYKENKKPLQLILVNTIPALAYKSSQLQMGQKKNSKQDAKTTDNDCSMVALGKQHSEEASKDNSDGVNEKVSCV
Chain of Mu-type opioid receptor (P35372 whole entry): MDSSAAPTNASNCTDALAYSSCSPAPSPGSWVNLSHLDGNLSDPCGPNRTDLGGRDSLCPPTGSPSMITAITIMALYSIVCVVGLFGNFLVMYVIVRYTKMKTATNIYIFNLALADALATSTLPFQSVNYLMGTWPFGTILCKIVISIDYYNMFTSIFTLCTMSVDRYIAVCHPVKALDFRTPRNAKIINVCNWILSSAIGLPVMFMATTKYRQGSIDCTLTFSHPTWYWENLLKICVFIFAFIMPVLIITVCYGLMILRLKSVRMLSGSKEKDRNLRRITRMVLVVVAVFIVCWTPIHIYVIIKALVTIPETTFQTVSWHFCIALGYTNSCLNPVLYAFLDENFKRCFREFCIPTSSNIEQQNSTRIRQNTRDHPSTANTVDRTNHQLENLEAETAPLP
T5 sequence (P21554 whole entry): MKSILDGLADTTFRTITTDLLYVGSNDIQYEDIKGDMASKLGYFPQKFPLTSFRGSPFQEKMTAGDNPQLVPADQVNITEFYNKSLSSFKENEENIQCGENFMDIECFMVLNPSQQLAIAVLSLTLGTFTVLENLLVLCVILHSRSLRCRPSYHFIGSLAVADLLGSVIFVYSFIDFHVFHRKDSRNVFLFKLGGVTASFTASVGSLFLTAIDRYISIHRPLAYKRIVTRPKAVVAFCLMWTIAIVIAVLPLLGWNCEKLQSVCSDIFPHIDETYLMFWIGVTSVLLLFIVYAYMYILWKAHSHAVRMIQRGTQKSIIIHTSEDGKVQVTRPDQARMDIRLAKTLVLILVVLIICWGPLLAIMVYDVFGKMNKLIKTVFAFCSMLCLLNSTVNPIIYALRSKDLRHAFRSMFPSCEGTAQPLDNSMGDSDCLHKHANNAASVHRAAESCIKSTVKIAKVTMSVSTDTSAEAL
Chain of Muscarinic acetylcholine receptor M3 (P20309 whole entry): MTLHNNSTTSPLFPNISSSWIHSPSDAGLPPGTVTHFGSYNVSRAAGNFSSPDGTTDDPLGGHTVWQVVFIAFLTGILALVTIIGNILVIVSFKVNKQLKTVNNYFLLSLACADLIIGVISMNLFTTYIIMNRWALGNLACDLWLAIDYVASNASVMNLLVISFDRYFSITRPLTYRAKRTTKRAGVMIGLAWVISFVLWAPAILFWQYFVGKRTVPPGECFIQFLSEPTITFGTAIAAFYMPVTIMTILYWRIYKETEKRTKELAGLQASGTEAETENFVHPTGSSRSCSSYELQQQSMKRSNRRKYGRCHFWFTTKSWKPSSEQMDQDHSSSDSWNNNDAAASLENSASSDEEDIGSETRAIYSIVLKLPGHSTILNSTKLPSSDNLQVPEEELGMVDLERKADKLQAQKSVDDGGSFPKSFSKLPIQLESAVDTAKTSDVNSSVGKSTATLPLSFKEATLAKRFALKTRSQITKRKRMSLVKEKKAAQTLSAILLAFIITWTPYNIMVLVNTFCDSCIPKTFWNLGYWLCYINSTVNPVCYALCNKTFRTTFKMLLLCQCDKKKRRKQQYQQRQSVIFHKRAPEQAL
Chain of Melanocortin receptor 4 (P32245 whole entry): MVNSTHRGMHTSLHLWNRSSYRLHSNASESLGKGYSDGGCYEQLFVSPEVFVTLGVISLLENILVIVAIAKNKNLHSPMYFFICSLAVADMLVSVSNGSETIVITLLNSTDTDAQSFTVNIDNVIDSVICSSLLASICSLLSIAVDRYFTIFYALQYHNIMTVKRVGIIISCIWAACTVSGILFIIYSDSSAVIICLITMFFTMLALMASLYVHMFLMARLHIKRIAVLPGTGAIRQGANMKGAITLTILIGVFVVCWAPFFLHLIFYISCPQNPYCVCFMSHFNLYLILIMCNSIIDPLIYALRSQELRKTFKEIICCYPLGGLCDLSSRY

Compound	AC50 [1] [µM]	AC50 [2] [µM]	AC50 [3] [µM]	AC50 [4] [µM]	AC50 (Mu-type opioid receptor) [µM]	AC50 [5] [µM]	AC50 [6] [µM]	AC50 (Cannabinoid receptor 1 [7]) [µM]	AC50 (Estrogen receptor) [µM]	AC50 [8] [µM]	AC50 (Cannabinoid receptor 1 [9]) [µM]	AC50 [10] [µM]	AC50 (Melanocortin receptor 4) [µM]
Oc1cc(O)c(Cl)cn1	> 30	> 30	> 30	> 30	> 30	26	> 30	> 30	–	–	–	–	–
C[N+]12CCC(CC1)C(OC(=O)C(O)(c1ccccc1)c1ccccc1)C2 (configuration not stated)	0.0019	> 30	> 30	> 30	> 30	> 30	0.0031	> 30	–	–	–	–	–
CO/N=C(\C(=O)N[C@@H]1C(=O)N2C(C(=O)O)=CCS[C@H]12)c1csc(N)n1 [CEFTIZOXIME]	–	> 30	> 30	–	> 30	> 30	> 30	> 30	> 30	–	–	–	–
CCCCOc1ccc(C(=O)CCN2CCCCC2)cc1 [DYCLONINE]	> 10	–	–	> 10	–	> 30	> 10	> 30	> 30	9.66	> 10	> 10	> 30
CCc1cc2c(s1)-n1c(C)nnc1CN=C2c1ccccc1Cl [ETIZOLAM]	> 30	> 30	> 30	> 30	> 30	> 30	> 30	> 30	> 30	–	–	–	–
COc1ccc(CN2CCN(C(c3ccc(F)cc3)c3ccc(F)cc3)CC2)c(OC)c1OC [LOMERIZINE]	> 30	21	> 30	19	3.3	8.2	0.94	23	–	–	–	–	–
CN1CCN=C(c2ccccc2)c2cc(Cl)ccc21 [MEDAZEPAM]	> 30	> 30	> 30	> 30	> 30	19	> 30	> 30	–	–	–	> 30	–
O=C(NCCO[N+](=O)[O-])c1cccnc1 [NICORANDIL]	> 30	> 30	> 30	> 30	> 30	> 30	> 30	> 30	–	–	–	–	–
CO[C@H]1C[C@H](O[C@H]2CC[C@@]3(C)[C@H](CC[C@@H]4[C@@H]3CC[C@]3(C)[C@@H](C5=CC(=O)OC5)[C@@H](OC(C)=O)C[C@]43O)C2)O[C@@H](C)[C@@H]1O [OLEANDRIN]	> 30	> 30	> 30	> 30	–	> 30	> 30	> 30	–	–	–	> 30	–
O=c1[nH]c2ccccc2n1CCCN1CCN(C(c2ccccc2)c2ccccc2)CC1 [OXATOMIDE]	3.5	1.2	> 30	> 30	1.8	4.1	5.8	> 30	–	–	–	–	–
COc1cc2[nH]c(C)c(CCN3CCN(c4ccccc4)CC3)c2cc1OC [OXYPERTINE]	> 30	0.41	> 30	0.25	> 30	–	> 30	> 30	–	–	–	0.15	–
c1ccc(C2(N3CCCCC3)CCCCC2)cc1 [PHENCYCLIDINE]	> 30	> 30	> 30	–	> 30	> 30	> 30	> 30	–	–	–	> 30	–
OC[C@H]1O[C@@H](Oc2cc(O)cc(/C=C/c3ccc(O)cc3)c2)[C@H](O)[C@@H](O)[C@@H]1O [PICEID]	> 30	> 30	> 30	> 30	> 30	19	> 30	> 30	> 30	–	–	–	–
O=C1CC[C@@H](C(=O)N2CSC[C@H]2C(=O)O)N1 [PIDOTIMOD] ([pGlu]-[Thz]-OH)	> 30	> 30	> 30	> 30	> 30	> 30	> 30	> 30	> 30	–	–	–	–
COc1cc(C(=O)OCc2cccc(COC(=O)c3cc(OC)c(OC)c(OC)c3)n2)cc(OC)c1OC [PIROZADIL]	> 30	> 30	> 30	> 30	> 30	–	> 30	> 30	–	–	–	> 30	–
CCc1nc(N)nc(N)c1-c1ccc(Cl)cc1 [PYRIMETHAMINE]	> 30	–	–	> 10	> 30	> 30	> 30	> 30	> 10	4	> 10	> 10	> 10
CCCN1CCCC[C@H]1C(=O)Nc1c(C)cccc1C [ROPIVACAINE]	> 30	> 30	> 30	> 30	> 30	> 30	> 30	> 30	–	–	–	–	–
CCN1CCCC1CNC(=O)c1cc(S(=O)(=O)CC)ccc1OC (configuration not stated) [SULTOPRIDE]	> 30	> 30	> 30	10	> 30	–	> 30	> 30	–	–	–	> 30	–
CCOC(=O)[C@@H](N)Cc1ccc(-c2cc(O[C@H](c3ccc(Cl)cc3-n3ccc(C)n3)C(F)(F)F)nc(N)n2)cc1 [TELOTRISTAT ETHYL]	> 30	–	> 30	29	–	> 30	> 30	–	–	–	–	–	–
